Results published in PMC10294771 (Journal of Enzyme Inhibition and Medicinal Chemistry, 2023).

Tested on: HCT-116 cells
Assay: In vitro cytotoxicity assay
Format: cell-based
Conditions: Homo sapiens, HCT-116, 72 h, read-out: IC50, HCT-116 cell proliferation

C[C@H](O)C(=O)N1CCC(CCn2c(Sc3cc4c(cc3Br)OCO4)nc3c(N)ncnc32)CC1 [MPC-3100, (2S)-1-[4-(2-{6-amino-8-[(6-bromo-1,3-benzodioxol-5-yl)sulfanyl]-9H-purin-9-yl}ethyl)piperidin-1-yl]-2-hydroxypropan-1-one]
IC50: 780 nM
